Measurements: paper PMC8652888, “Angiogenesis, Anti-Tumor, and Anti-Metastatic Activity of Novel α-Substituted Hetero-Aromatic Chalcone Hybrids as Inhibitors of Microtubule Polymerization” (Frontiers in Chemistry, 2021)
Read-outs that look alike come from different tables or passages of the source.

What was measured:
U937 = experiment: Antiproliferative activity, CCK-8 assay; type: cell-based; conditions: Homo sapiens, U-937
Experimental: (§1) The synthesized compounds were first evaluated for their cytotoxic effect on MCF-7 (human breast adenocarcinoma), U937 (histiocytic lymphoma cancer), HepG2 (human liver cancer) cells, and MGC-803 (human gastric cancer) using the SRB and CCK-8 assay. As reference compounds CA-4 and colchicine were included.
(§2) The primary tumor cells were purchased from a professional biomedical company. First, the primary tumor cells were incubated in a cell culture incubator at 37°C and 5% CO2. After the cell fusion reached 85%–95%, subculture was performed, and the tumor cells obtained at this time were used for subsequent related experiments. The CCK-8 method was used to inhibit the proliferation of U937 tumor cells, and the SRB method was used to inhibit the proliferation of MCF7 and HepG2 tumor cells.
The cells in the logarithmic growth phase were seeded in a 96-well plate at 8,000/well, and the drug-containing medium and cell suspension were added to the well. Three wells were added with the blank medium as the blank group. The 96-well plate was incubated for 72 h in a 37°C, 5% CO2 incubator. The 10 μl of CCK-8 dye solution was added to each well, and the incubation continued for 3–4 h.

MCF-7 = experiment: Antiproliferative activity, SRB assay; type: cell-based, human; conditions: Homo sapiens;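 also: proliferation of MCF7 cells quantified by sulforhodamine B staining, with optical density read at 560 nm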
HepG2 = experiment: Antiproliferative activity, SRB assay; type: cell-based, human; conditions: Homo sapiens, HepG2
Experimental: as §1, §2
Cells were distributed into 96-well plates with a density of 3 × 10^3–4 × 10^3 cells per well and incubated for 24 h in a 5% CO2 incubator at 37°C, followed by treatment with study compounds at different concentrations at 37°C for 72 h. One hundred microliters of 10% (w/v) trichloroacetic acid was added to each well, fixed at 4°C for 30 min, and dried at 65°C. Then 100 μl of 0.4% SRB was added to each well and stained on a shaker for 20 min at room temperature. The excess dye solution was washed with newly prepared 1% glacial acetic acid and dried at 65°C. One hundred fifty microliters of 10 mM unbuffered Trisbase was added to each well of the plate and shaken for 5 min to dissolve the dye. The microplate reader measured the optical density (OD) at a wavelength of 560 nm.

[1] = 72 h, triplicate, mean ± SD, read-out: IC50 ± SD, U937
[2] = MCF7, 72 h, 72 h, triplicate, mean ± SD, read-out: IC50 ± SD, MCF-7
[3] = MCF7, supplement raw data of table 2, read-out: IC50(MCF-7)
[4] = 72 h, triplicate, mean ± SD, read-out: IC50 ± SD, HepG2
[5] = supplement raw data of table 2, read-out: IC50(Hepg2)
[6] = supplement raw data of table 2, read-out: IC50(U937)

COc1cc(C(=O)/C(C)=C/c2c(C)[nH]c3ccccc23)cc(OC)c1OC [Compound 7b, (E)-2-methyl-3-(2-methyl-1H-indol-3-yl)-1-(3,4,5-trimethoxyphenyl)prop-2-en-1-one]
IC50 (U937; [1]): 3080 ± 433 nM | IC50 (MCF-7; [2]): 584 ± 16 nM | IC50 (MCF-7; [3]): 584 nM | IC50 (HepG2; [4]): 10800 ± 629 nM | melting point: 152.7 to 153.2 °C

COC(=O)c1ccc2[nH]cc(/C=C(\C)C(=O)c3cc(OC)c(OC)c(OC)c3)c2c1 [Compound 7e, methyl(E)-3-(2-methyl-3-oxo-3-(3,4,5-trimethoxyphenyl)prop-1-en-1-yl)-1H-indole-5-carboxylate]
IC50 (U937; [1]): > 20000 nM | IC50 (MCF-7; [2]): > 20000 nM | IC50 (HepG2; [4]): > 20000 nM | melting point: 210.4 to 213.7 °C

COC(=O)c1ccc2c(/C=C(\C)C(=O)c3cc(OC)c(OC)c(OC)c3)c[nH]c2c1 [Compound 7f, methyl(E)-3-(2-methyl-3-oxo-3-(3,4,5-trimethoxyphenyl)prop-1-en-1-yl)-1H-indole-6-carboxylate]
IC50 (U937; [1]): 1620 ± 190 nM | IC50 (MCF-7; [2]): 13700 ± 965 nM | IC50 (HepG2; [4]): 193 ± 1 nM | melting point: 229.3 to 231.7 °C

COc1cc(C(=O)/C(C)=C/c2cc3ccccc3o2)cc(OC)c1OC [Compound 7h, (E)-3-(benzofuran-2-yl)-2-methyl-1-(3,4,5-trimethoxyphenyl)prop-2-en-1-one]
IC50 (U937; [1]): 224 ± 7 nM | IC50 (MCF-7; [2]): 254 ± 10 nM | IC50 (MCF-7; [3]): 255 nM | IC50 (HepG2; [4]): 116 ± 7 nM | melting point: 50.1 to 53.2 °C

COc1cc(C(=O)/C(C)=C/c2oc3ccccc3c2C)cc(OC)c1OC [Compound 7i, (E)-2-methyl-3-(3-methylbenzofuran-2-yl)-1-(3,4,5-trimethoxyphenyl)prop-2-en-1-one]
IC50 (U937; [1]): 1180 ± 37 nM | IC50 (MCF-7; [2]): 1410 ± 21 nM | IC50 (HepG2; [4]): 879 ± 7 nM | IC50 (HepG2; [5]): 879 nM | melting point: 113.2 to 115.1 °C

COc1cc(C(=O)/C(C)=C/c2ccc3c(c2)CCO3)cc(OC)c1OC [Compound 7n, (E)-3-(2,3-dihydrobenzofuran-5-yl)-2-methyl-1-(3,4,5-trimethoxyphenyl)prop-2-en-1-one]
IC50 (U937; [1]): 11 ± 2 nM | IC50 (U937; [6]): 10.8 nM | IC50 (MCF-7; [2]): 20 ± 2 nM | IC50 (MCF-7; [3]): 19.5 nM | IC50 (HepG2; [4]): 2 ± 0.1 nM | IC50 (HepG2; [5]): 2.21 nM

COc1cc(C(=O)/C(C)=C/c2cc3ccccc3s2)cc(OC)c1OC [Compound 7o, (E)-3-(benzo[b]thiophen-2-yl)-2-methyl-1-(3,4,5-trimethoxyphenyl)prop-2-en-1-one]
IC50 (U937; [1]): 166 ± 3 nM | IC50 (U937; [6]): 166 nM | IC50 (MCF-7; [2]): 187 ± 3 nM | IC50 (MCF-7; [3]): 187 nM | IC50 (HepG2; [4]): 116 ± 1 nM | IC50 (HepG2; [5]): 116 nM | melting point: 81.4 to 83.2 °C

COc1cc(C(=O)/C(C)=C/c2cccc3c2OCO3)cc(OC)c1OC [Compound 7s, (E)-3-(benzo[d][1,3]dioxol-4-yl)-2-methyl-1-(3,4,5-trimethoxyphenyl)prop-2-en-1-one]
IC50 (U937; [1]): 353 ± 6 nM | IC50 (U937; [6]): 353 nM | IC50 (MCF-7; [2]): 225 ± 5 nM | IC50 (HepG2; [4]): 259 ± 5 nM | IC50 (HepG2; [5]): 259 nM | melting point: 119.7 to 120.9 °C

COc1cc(C(=O)/C(C#N)=C/c2c[nH]c3ccccc23)cc(OC)c1OC [Compound 8a, (E)-3-(1H-indol-3-yl)-2-(3,4,5-trimethoxybenzoyl)acrylonitrile]
IC50 (U937; [1]): 140 ± 41 nM | IC50 (U937; [6]): 140 nM | IC50 (MCF-7; [2]): 934 ± 23 nM | IC50 (MCF-7; [3]): 940 nM | IC50 (HepG2; [4]): 938 ± 8 nM | IC50 (HepG2; [5]): 938 nM | melting point: 224.2 to 229.3 °C

COc1cc(C(=O)/C(C#N)=C/c2c(C)[nH]c3ccccc23)cc(OC)c1OC [Compound 8b, (E)-3-(2-methyl-1H-indol-3-yl)-2-(3,4,5-trimethoxybenzoyl)acrylonitrile]
IC50 (U937; [1]): > 20000 nM | IC50 (MCF-7; [2]): > 20000 nM | IC50 (HepG2; [4]): > 20000 nM | melting point: 216.5 to 218.2 °C

COc1cc(C(=O)/C(C#N)=C/c2c(-c3ccccc3)[nH]c3ccccc23)cc(OC)c1OC [Compound 8c, (E)-2-((l2-azaneylidene)-l3-methyl)-3-(2-phenyl-1H-indol-3-yl)-1-(3,4,5-trimethoxyphenyl)prop-2-en-1-one]
IC50 (U937; [1]): 4490 ± 433 nM | IC50 (MCF-7; [2]): 2100 ± 270 nM | IC50 (HepG2; [4]): 14100 ± 386 nM | melting point: 253.8 to 255.9 °C

COC(=O)c1cccc2[nH]cc(/C=C(\C#N)C(=O)c3cc(OC)c(OC)c(OC)c3)c12 [Compound 8d, methyl(E)-3-(2-cyano-3-oxo-3-(3,4,5-trimethoxyphenyl)prop-1-en-1-yl)-1H-indole-4-carboxylate]
IC50 (U937; [1]): 8580 ± 178 nM | IC50 (MCF-7; [2]): > 20000 nM | IC50 (HepG2; [4]): > 20000 nM | melting point: 176.7 to 178.2 °C

COC(=O)c1ccc2[nH]cc(/C=C(\C#N)C(=O)c3cc(OC)c(OC)c(OC)c3)c2c1 [Compound 8e, methyl(E)-3-(2-cyano-3-oxo-3-(3,4,5-trimethoxyphenyl)prop-1-en-1-yl)-1H-indole-5-carboxylate]
IC50 (U937; [1]): > 20000 nM | IC50 (MCF-7; [2]): > 20000 nM | IC50 (HepG2; [4]): > 20000 nM | melting point: > 260 °C

COC(=O)c1ccc2c(/C=C(\C#N)C(=O)c3cc(OC)c(OC)c(OC)c3)c[nH]c2c1 [Compound 8f, methyl(E)-3-(2-cyano-3-oxo-3-(3,4,5-trimethoxyphenyl)prop-1-en-1-yl)-1H-indole-6-carboxylate]
IC50 (U937; [1]): > 20000 nM | IC50 (MCF-7; [2]): > 20000 nM | IC50 (HepG2; [4]): > 20000 nM | melting point: 239.7 to 241 °C

COc1cc(C(=O)/C(C#N)=C/c2c[nH]c3cc(Br)ccc23)cc(OC)c1OC [Compound 8g, (E)-3-(6-bromo-1H-indol-3-yl)-2-(3,4,5-trimethoxybenzoyl)acrylonitrile]
IC50 (U937; [1]): 2510 ± 29 nM | IC50 (MCF-7; [2]): 2161 ± 9 nM | IC50 (HepG2; [4]): 1430 ± 49 nM | melting point: 266.5 to 268.2 °C

COc1cc(C(=O)/C(C#N)=C/c2cc3ccccc3o2)cc(OC)c1OC [Compound 8h, (E)-3-(benzofuran-2-yl)-2-(3,4,5-trimethoxybenzoyl)acrylonitrile]
IC50 (U937; [1]): > 20000 nM | IC50 (MCF-7; [2]): > 20000 nM | IC50 (HepG2; [4]): > 20000 nM | melting point: 168.3 to 169.5 °C

COc1cc(C(=O)/C(C#N)=C/c2oc3ccccc3c2C)cc(OC)c1OC [Compound 8i, (E)-3-(3-methylbenzofuran-2-yl)-2-(3,4,5-trimethoxybenzoyl)acrylonitrile]
IC50 (U937; [1]): > 20000 nM | IC50 (MCF-7; [2]): > 20000 nM | IC50 (HepG2; [4]): > 20000 nM | melting point: 136.7 to 138.5 °C

COc1cc(C(=O)/C(C#N)=C/c2coc3ccccc23)cc(OC)c1OC [Compound 8j, (E)-3-(benzofuran-3-yl)-2-(3,4,5-trimethoxybenzoyl)acrylonitrile]
IC50 (U937; [1]): > 20000 nM | IC50 (MCF-7; [2]): > 20000 nM | IC50 (HepG2; [4]): > 20000 nM | melting point: 176.5 to 178.4 °C

COc1cc(C(=O)/C(C#N)=C/c2cc3c(cc2[N+](=O)[O-])OCO3)cc(OC)c1OC [Compound 8k, (E)-3-[6-nitrobenzo(d)(1,3)dioxol-5-yl]-2-(3,4,5-trimethoxybenzoyl)acrylonitrile]
IC50 (U937; [1]): 14310 ± 127 nM | IC50 (U937; [6]): 14300 nM | IC50 (MCF-7; [2]): 16430 ± 42 nM | IC50 (HepG2; [4]): 18740 ± 35 nM | IC50 (HepG2; [5]): 18700 nM | melting point: 160.1 to 163.8 °C

COc1cc(C(=O)/C(C#N)=C/c2ccc3c(c2)CCO3)cc(OC)c1OC [Compound 8n, (E)-3-(2,3-dihydrobenzofuran-5-yl)-2-(3,4,5-trimethoxybenzoyl)acrylonitrile]
IC50 (U937; [1]): 9250 ± 141 nM | IC50 (MCF-7; [2]): > 20000 nM | IC50 (HepG2; [4]): > 20000 nM
